Entries after “also recorded” stand apart in the source; their conditions may differ. Like-named read-outs stand apart in the source and are kept apart here.
How the values were obtained:
[1] = molecular target: T1, BIRC8 (Homo sapiens, UniProt Q96P09); test: NanoBRET cellular target engagement, full-length BIRC8
T1 sequence (Q96P09 1-236): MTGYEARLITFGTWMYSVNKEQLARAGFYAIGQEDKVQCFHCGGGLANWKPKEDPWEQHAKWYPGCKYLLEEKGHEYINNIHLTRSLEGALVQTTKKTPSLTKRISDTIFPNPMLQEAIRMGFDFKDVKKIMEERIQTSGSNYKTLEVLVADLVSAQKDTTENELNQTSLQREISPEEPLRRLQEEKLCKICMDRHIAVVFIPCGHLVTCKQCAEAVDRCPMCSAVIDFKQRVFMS
Method: (§1) In brief: Constructs contained the cDNA of full-length or single domains cloned in frame with an N-terminal NanoLuc-fusion as specified in Supplementary Table S2. Plasmids were transfected into HEK293T cells using FuGENE HD (Promega, E2312) and proteins were allowed to express for 20 h. […] The corresponding transfected cells were added and reseeded at a density of 2.5^5 cells/mL after trypsinization and resuspending in Opti-MEM without phenol red (Life Technologies). […] Competitive displacement data were then graphed using GraphPad Prism 9.3 software using a normalized 3-parameter curve fit with the following equation: Y = 100/(1 + 10^(X-LogIC50)).

[2] = molecular target: BIRC4 (Homo sapiens, UniProt P98170); test: NanoBRET cellular target engagement, full-length BIRC4
Chain of BIRC4 (P98170 whole entry, the tested form may be a part): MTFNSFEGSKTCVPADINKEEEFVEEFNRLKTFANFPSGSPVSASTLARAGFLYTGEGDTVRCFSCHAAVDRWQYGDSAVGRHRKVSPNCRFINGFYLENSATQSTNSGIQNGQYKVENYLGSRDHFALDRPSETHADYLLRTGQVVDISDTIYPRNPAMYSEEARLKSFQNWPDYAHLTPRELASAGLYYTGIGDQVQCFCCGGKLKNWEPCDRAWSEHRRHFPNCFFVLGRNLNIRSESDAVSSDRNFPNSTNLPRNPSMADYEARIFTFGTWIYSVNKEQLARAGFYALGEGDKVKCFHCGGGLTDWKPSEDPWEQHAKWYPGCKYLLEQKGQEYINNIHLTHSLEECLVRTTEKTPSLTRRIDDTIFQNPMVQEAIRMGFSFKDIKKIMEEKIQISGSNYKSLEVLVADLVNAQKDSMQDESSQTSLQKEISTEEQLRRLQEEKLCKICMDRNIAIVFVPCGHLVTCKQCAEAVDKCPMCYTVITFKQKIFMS
Method: as §1

[3] = molecular target: T2, BIRC8 BIR (Homo sapiens, UniProt Q96P09); test: NanoBRET cellular target engagement, single domain BIRC8 BIR
T2 sequence (Q96P09 1-90): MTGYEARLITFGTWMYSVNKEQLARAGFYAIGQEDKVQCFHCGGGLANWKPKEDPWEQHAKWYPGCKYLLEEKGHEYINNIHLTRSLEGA
Method: as §1

[4] = molecular target: T3, BIRC7 (Homo sapiens, UniProt Q96CA5); test: NanoBRET cellular target engagement, full-length BIRC7
T3 sequence (Q96CA5 1-298): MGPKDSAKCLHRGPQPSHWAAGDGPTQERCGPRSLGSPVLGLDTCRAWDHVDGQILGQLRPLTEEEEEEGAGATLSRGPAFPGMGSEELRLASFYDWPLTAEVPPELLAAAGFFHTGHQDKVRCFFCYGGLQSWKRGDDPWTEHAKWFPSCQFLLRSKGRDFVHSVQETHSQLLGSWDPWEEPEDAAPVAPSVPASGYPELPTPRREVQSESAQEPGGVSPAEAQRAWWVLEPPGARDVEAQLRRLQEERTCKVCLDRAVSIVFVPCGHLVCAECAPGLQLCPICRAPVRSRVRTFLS
Method: as §1

[5] = molecular target: T4, BIRC7 BIR (Homo sapiens, UniProt Q96CA5); test: NanoBRET cellular target engagement, single domain BIRC7 BIR
T4 sequence (Q96CA5 70-176): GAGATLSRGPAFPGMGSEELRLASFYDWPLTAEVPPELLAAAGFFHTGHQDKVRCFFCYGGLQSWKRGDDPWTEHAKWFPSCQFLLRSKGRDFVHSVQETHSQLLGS
Method: as §1

[6] = molecular target: T5, BIRC1 BIR[2] (Homo sapiens, UniProt Q13075); test: NanoBRET cellular target engagement, single domain BIRC1 BIR[2]
T5 sequence (Q13075 139-251): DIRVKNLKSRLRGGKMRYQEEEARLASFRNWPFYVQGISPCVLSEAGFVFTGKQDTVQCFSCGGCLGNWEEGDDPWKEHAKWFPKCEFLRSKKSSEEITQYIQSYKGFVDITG
Method: as §1

[7] = molecular target: T6, BIRC2-BIR3 domain (Homo sapiens, UniProt Q13490); test: Isothermal titration calorimetry (ITC); assay type: binding; design: BIRC2-BIR3 domain (260–352) was expressed; His6 (N, cleaved yes); GST (N, cleaved yes); made in house; host or cells: E. coli
T6 sequence (Q13490 260-352): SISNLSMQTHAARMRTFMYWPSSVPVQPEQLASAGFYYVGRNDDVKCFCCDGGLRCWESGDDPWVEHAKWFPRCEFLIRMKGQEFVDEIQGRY
Method: For this protocol, the chamber was pre-equilibrated with the test compound, and the BIRC2-BIR3 domain was titrated in while continuously measuring the rate of exothermic heat evolution. The heat of binding was integrated, corrected, and fitted to an independent single-binding site model based on the manufacturer’s instructions, from which thermodynamic parameters (ΔH and TΔS), equilibrium association and dissociation constants (K A and K D, respectively), and stoichiometry (n) were calculated.

[8] = molecular target: T6, BIRC2-BIR3 domain; test: Fluorescence polarization (FP) competition assay with fluorescent SMAC probe; assay type: binding; design: BIRC2-BIR3 domain (260–352) was expressed; His6 (N, cleaved yes); GST (N, cleaved yes); made in house; host or cells: E. coli; conditions: for Ki: read-out: FP Assay K I Values
Method: Resulting data was plotted using GraphPad Prism 9.3 software and analyzed using a nonlinear fit to calculate the probe IC50. […] Compounds were titrated from 20 μM to 20 nM using an ECHO 550 acoustic dispenser (Labcyte) incubated for 1 h at room temperature and subsequent read out.
The assay is based on the displacement of a fluorescent SMAC mimetic from the binding site.

[9] = molecular target: BIRC2 BIR2 (Homo sapiens, UniProt Q13490); test: NanoBRET cellular target engagement, single domain BIRC2 BIR2
Chain of BIRC2 BIR2 (Q13490 165-267): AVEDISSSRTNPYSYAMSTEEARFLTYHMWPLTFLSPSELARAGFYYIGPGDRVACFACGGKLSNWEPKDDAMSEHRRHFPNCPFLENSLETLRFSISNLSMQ
Method: as §1

[10] = molecular target: BIRC2 (Homo sapiens, UniProt Q13490); test: NanoBRET cellular target engagement, full-length BIRC2
Chain of BIRC2 (Q13490 whole entry, the tested form may be a part): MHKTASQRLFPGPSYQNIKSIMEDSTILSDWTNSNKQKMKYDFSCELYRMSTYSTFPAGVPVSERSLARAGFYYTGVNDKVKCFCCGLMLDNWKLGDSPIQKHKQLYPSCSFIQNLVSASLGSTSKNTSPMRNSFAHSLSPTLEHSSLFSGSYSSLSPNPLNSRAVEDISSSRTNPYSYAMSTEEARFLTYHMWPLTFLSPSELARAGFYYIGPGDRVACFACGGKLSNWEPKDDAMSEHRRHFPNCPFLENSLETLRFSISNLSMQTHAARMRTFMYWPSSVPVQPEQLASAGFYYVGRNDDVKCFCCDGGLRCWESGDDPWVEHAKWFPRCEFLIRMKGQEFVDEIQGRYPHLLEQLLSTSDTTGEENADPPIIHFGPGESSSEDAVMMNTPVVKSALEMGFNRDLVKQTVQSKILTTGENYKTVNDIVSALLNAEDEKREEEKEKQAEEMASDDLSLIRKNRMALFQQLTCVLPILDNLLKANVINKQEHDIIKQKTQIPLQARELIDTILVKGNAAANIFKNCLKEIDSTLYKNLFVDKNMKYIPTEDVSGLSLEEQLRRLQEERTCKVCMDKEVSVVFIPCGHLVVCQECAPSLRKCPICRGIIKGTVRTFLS
Method: as §1

[11] = molecular target: T6, BIRC2-BIR3 domain; test: Differential scanning fluorimetry (DSF); conditions: for Mean, ΔTm [°C] (Supplementary Table S1): mean of n=3, difference to DMSO control; for ΔTm [°C] (Supplementary Table S1): technical replicate; for ΔTm at 40 µM: read-out: DSF Assay ΔTm
Method: Purified proteins were buffered in DSF buffer (25 mM HEPES pH 7.5, 500 mM NaCl) and were assayed in a 384-well plate (Thermo, #BC3384) with a final protein concentration of 20 μM in 10 μL final assay volume. Inhibitors were added in excess to a final concentration of 40 μM, using an ECHO 550 acoustic dispenser (Labcyte). As a fluorescent probe, SYPRO-Orange (Molecular Probes) was used at 5x final concentration. […] Data was analyzed using Boltzmann-equation in the Protein Thermal Shift software (Applied Biosystems). Samples were measured in technical triplicates.
The assay was run in the presence of DMSO to exclude DMSO influences towards melting temperature differences when testing small molecules (Figures 2C,D).

[12] = molecular target: BIRC2 BIR3 (Homo sapiens, UniProt Q13490); test: NanoBRET cellular target engagement, single domain BIRC2 BIR3
Chain of BIRC2 BIR3 (Q13490 251-372): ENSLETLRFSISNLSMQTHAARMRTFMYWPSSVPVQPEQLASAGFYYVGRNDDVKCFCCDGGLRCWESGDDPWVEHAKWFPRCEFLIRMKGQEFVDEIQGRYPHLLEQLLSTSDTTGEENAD
Method: as §1

[13] = molecular target: T6, BIRC2-BIR3 domain; design: BIRC2-BIR3 domain (260–352) was expressed; His6 (N, cleaved yes); GST (N, cleaved yes); made in house; host or cells: E. coli; conditions: ref Lu et al. (2008); read-out: Literature FP Assay K I Values; cited from earlier work
[14] = molecular target: BIRC3 BIR2 (Homo sapiens, UniProt Q13489); test: NanoBRET cellular target engagement, single domain BIRC3 BIR2
Chain of BIRC3 BIR2 (Q13489 147-253): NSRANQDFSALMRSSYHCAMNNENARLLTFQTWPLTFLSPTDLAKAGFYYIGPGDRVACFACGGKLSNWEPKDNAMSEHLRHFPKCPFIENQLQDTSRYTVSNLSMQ
Method: as §1

[15] = molecular target: BIRC3 BIR3 (Homo sapiens, UniProt Q13489); test: NanoBRET cellular target engagement, single domain BIRC3 BIR3
Chain of BIRC3 BIR3 (Q13489 236-360): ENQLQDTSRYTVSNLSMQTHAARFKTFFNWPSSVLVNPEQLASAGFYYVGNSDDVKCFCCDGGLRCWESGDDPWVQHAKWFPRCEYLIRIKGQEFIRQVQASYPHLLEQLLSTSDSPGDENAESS
Method: as §1

[16] = molecular target: BIRC3 (Homo sapiens, UniProt Q13489); test: NanoBRET cellular target engagement, full-length BIRC3
Chain of BIRC3 (Q13489 whole entry): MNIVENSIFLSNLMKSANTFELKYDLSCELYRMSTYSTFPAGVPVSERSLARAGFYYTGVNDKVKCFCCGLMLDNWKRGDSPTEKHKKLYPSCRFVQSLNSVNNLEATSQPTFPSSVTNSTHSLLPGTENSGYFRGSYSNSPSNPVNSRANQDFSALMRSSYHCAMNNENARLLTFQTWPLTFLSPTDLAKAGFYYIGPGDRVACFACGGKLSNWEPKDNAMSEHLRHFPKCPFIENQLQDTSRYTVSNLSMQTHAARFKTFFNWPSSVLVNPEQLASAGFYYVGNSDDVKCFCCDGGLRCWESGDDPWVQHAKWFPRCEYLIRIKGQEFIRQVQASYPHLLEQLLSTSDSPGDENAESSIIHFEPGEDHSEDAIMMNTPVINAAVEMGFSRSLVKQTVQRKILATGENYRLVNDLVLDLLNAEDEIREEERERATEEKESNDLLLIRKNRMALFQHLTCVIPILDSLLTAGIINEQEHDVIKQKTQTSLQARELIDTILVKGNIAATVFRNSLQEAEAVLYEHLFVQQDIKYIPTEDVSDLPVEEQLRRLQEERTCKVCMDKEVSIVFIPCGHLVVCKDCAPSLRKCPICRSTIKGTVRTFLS
Method: as §1

[17] = read-out: EC50 ± SEM NanoBRET BIRC8, full-length, HEK293T, n = 4
[18] = read-out: EC50 ± SEM NanoBRET BIRC8 BIR, single domain, HEK293T, n = 4
[19] = 25°C, duplicates, mean ± SD, read-out: K D Measured in ITC
[20] = read-out: EC50 ± SEM NanoBRET BIRC7, full-length, HEK293T, n = 4
[21] = BIRC2 BIR3 domain, Cheng-Prusoff from IC50, mean ± SD, n = 3
[22] = read-out: EC50 ± SEM NanoBRET BIRC7 BIR, single domain, HEK293T, n = 4
[23] = read-out: EC50 ± SEM NanoBRET BIRC2 BIR2, single domain, HEK293T, n = 4
[24] = read-out: EC50 ± SEM NanoBRET BIRC2, full-length, HEK293T, n = 4
[25] = read-out: EC50 ± SEM NanoBRET BIRC1 BIR[2], single domain, HEK293T, n = 4
[26] = read-out: EC50 ± SEM NanoBRET BIRC2 BIR3, single domain, HEK293T, n = 4

| Compound | EC50 [1] [µM] | EC50 [2] [µM] | EC50 [3] [µM] | EC50 [4] [µM] | EC50 [5] [µM] | EC50 [6] [µM] | Kd [7, 19] [µM] | Mean, ΔTm [°C] (Supplementary Table S1) [11] | ΔTm [°C] (Supplementary Table S1) ([11]; first column) | ΔTm [°C] (Supplementary Table S1) ([11]; second column) | ΔTm [°C] (Supplementary Table S1) ([11]; third column) | EC50 [14] [µM] | EC50 [15] [µM] | EC50 [16] [µM] | other results |
| --- | --- | --- | --- | --- | --- | --- | --- | --- | --- | --- | --- | --- | --- | --- | --- |
| CN[C@@H](C)C(=O)N[C@H](C(=O)N1CCC[C@H]1C(=O)Nc1snnc1-c1ccccc1)C1CCCCC1 [GDC-0152] | 0.134 ± 0.0084 | 0.0153 ± 0.005 | 0.146 ± 0.0038 | 0.0355 ± 0.0094 | 0.0284 ± 0.0027 | 15.2 ± 1.23 | – | – | – | – | – | – | – | – | – |
| CN[C@@H](C)C(=O)N[C@H](C(=O)N1CCC[C@H]1c1nc(C(=O)c2ccc(F)cc2)cs1)C1CCCCC1 [LCL161] | 0.199 ± 0.0214 | – | 0.258 ± 0.0424 | 0.0264 ± 0.0055 | 0.0285 ± 0.007 | 1.49 ± 0.297 | – | – | – | – | – | – | – | – | – |
| CN[C@@H](C)C(=O)N[C@H]1CCCC[C@H]2CC[C@@H](C(=O)N[C@@H](c3ccccc3)c3cn(CCCCc4ccc(CCCCn5cc([C@@H](NC(=O)[C@@H]6CC[C@@H]7CCCC[C@H](NC(=O)[C@H](C)NC)C(=O)N76)c6ccccc6)nn5)cc4)nn3)N2C1=O [SM-164] | – | – | – | – | – | – | 0.0416 ± 0.0034 | 13.4 | 13.6 | 13.4 | 13.1 | – | – | – | EC50 [1, 17]: 0.0857 ± 0.0047 µM; EC50 [3, 18]: 0.0873 ± 0.0094 µM; EC50 [4, 20]: 0.0165 ± 0.006 µM; Ki [8, 21]: 0.0018 ± 0.0007 µM; EC50 [5, 22]: 0.0509 ± 0.0444 µM; EC50 [9, 23]: 6.61 ± 5.28 µM; EC50 [10, 24]: 0.0058 ± 0.0006 µM; DSF Assay ΔTm ([11]; difference in melting temperature to DMSO control, 20 μM protein, 40 μM inhibitor, mean ± SD, n = 3): 13.4 ± 0.2 °C; EC50 [6, 25]: 0.941 ± 0.258 µM; EC50 [12, 26]: 0.0008 ± 0.0001 µM; Ki [13]: 0.0003 ± 0.0001 µM |
| Oc1c(CN2CCCC2)cc(COCc2ccccc2)c2cccnc12 [UC-112] | – | – | – | – | – | – | – | 0.3 | 0.4 | 0.3 | 0.2 | – | – | – | EC50 ([14]; read-out: EC50 ± SEM NanoBRET BIRC3 BIR2, single domain, HEK293T, n = 4): > 50 µM; EC50 [1, 17]: > 50 µM; EC50 ([15]; read-out: EC50 ± SEM NanoBRET BIRC3 BIR3, single domain, HEK293T, n = 4): > 50 µM; EC50 ([2]; read-out: EC50 ± SEM NanoBRET BIRC4, full-length, HEK293T, n = 4): > 50 µM; EC50 [3, 18]: > 50 µM; K D Measured in ITC ([7]; 25°C, duplicates, mean ± SD): no binding; EC50 [4, 20]: > 50 µM; EC50 ([16]; read-out: EC50 ± SEM NanoBRET BIRC3, full-length, HEK293T, n = 4): > 50 µM; FP Assay K I Values [8, 21]: binding could not be shown; also recorded: no interaction at all; EC50 [5, 22]: > 50 µM; EC50 [9, 23]: > 50 µM; EC50 [10, 24]: > 50 µM; EC50 [6, 25]: > 50 µM; EC50 [12, 26]: > 50 µM |
| CN[C@@H](C)C(=O)N[C@H](C(=O)N1CCC[C@H]1C(=O)Nc1sc(-c2ncco2)nc1-c1ccccc1)C1CCCCC1 [CUDC-427] | 0.218 ± 0.0483 | 0.19 ± 0.0269 | 0.272 ± 0.0061 | – | – | 10.1 ± 1.23 | 0.0447 ± 0.0118 | 10.9 | 10.9 | 10.9 | – | 14.8 ± 0.636 | 0.02 ± 0.0031 | 0.739 ± 0.108 | Ki [8]: 0.0029 ± 0.0003 µM; EC50 [9]: 15.4 ± 8.97 µM; EC50 [10]: 0.622 ± 0.232 µM; ΔTm at 40 µM [11]: 10.8 ± 0.1 °C; EC50 [12]: 0.0544 ± 0.001 µM |
| CN[C@@H](C)C(=O)N[C@H](C(=O)N1CCC[C@H]1C(=O)N[C@@H]1CCCc2ccccc21)C1CCCCC1 [A 410099.1] | 0.0939 ± 0.0093 | – | 0.108 ± 0.0075 | 0.0199 ± 0.0026 | 0.017 ± 0.0024 | 1.23 ± 0.325 | 0.0375 ± 0.0061 | – | – | – | – | 0.681 ± 0.068 | 0.0015 ± 0.0002 | 0.0092 ± 0.001 | ITC ΔG ([7]; 25°C): -42.01 kJ/mol; ITC ΔH ([7]; 25°C): -34.4 kJ/mol; Kd ([7]; 25°C, exemplary titration, read-out: ITC KD (Figure 2E,F)): 0.0436 µM; ITC stoichiometry n ([7]; exemplary titration, Figure 2E,F): 1.074; IC50 ([8]; BIRC2 BIR3 domain, 5 nM probe, 30 nM protein, approximations, read-out: FP assay IC50 (estimated)): 0.0054 µM; Ki [8]: 0.002 ± 0.0011 µM; EC50 [9]: 0.333 ± 0.0354 µM; EC50 [10]: 0.0046 ± 0.0002 µM; EC50 [12]: 0.0004 ± 0.0002 µM; gain in potency on single BIR3 domain compared to full-length protein ([12]; NanoBRET, single BIR3 domain vs full-length): about 10 fold |
| CN[C@@H](C)C(=O)N[C@H]1CN(C(=O)CC(C)C)CC[C@H]2CC[C@@H](C(=O)NC(c3ccccc3)c3ccccc3)N2C1=O [AT406] | 0.0693 ± 0.0211 | 0.0285 ± 0.0052 | 0.0696 ± 0.0003 | 0.0251 ± 0.0052 | 0.018 ± 0.0045 | 0.467 ± 0.021 | – | – | 11.8 | 11.8 | 11.4 | 8.135 ± 0.0523 | 0.0052 ± 0.0012 | 0.062 ± 0.0085 | ΔTm at 40 µM [11]: 11.6 ± 0.2 °C |
| CC[C@H](NC(=O)[C@H](C)NC)C(=O)N1C[C@@H](O)C[C@H]1Cc1c(-c2[nH]c3cc(F)ccc3c2C[C@@H]2C[C@H](O)CN2C(=O)[C@H](CC)NC(=O)[C@H](C)NC)[nH]c2cc(F)ccc12 [Birinapant] | 2.2 ± 1.1 | – | 3.5 ± 0.1 | – | – | 18.3 ± 1.1 | – | – | – | – | – | 17.4 ± 1.7 | 0.9 | 0.8 ± 0.4 | – |
